Here are results for 19 substances from article PMC7261408 (Molecular pharmaceutics, 2017).

Data set [1] concerns TZM-bl cells. Put plainly: MTT cell proliferation. The conditions noted are these: for TI (toxicity index; ratio of cytotoxicity to neutralization IC50 values): MTT assay; for cellular cytotoxicity (in words): MTT cell proliferation assay; for cytotoxic at concentrations above: cellular cytotoxicity assays. A general note: Tetrazolium assays rely on reduction of a dye to a coloured formazan, in cell work by metabolically active cells.

Data set [2] concerns HIV-1 BaL virions (gp120). Put plainly: HIV-1 virion capture assay with gp120-specific mAbs. In kind it is binding. The conditions noted are these: peptide 50 μM; sCD4–2D-treated HIV-1 BaL; captured p24 Gag by AlphaLISA.
A short description of data set [3]: Peptide stability in PBS and cell growth medium with serum. In kind it is in vitro ADME. The note with it: PBS and cell growth medium (DMEM) complemented with fetal bovine serum, 37 °C, 5% CO2, 24 h monitoring; LC–MS.
Data set [4] relates to amphotropic pseudotyped murine leukemia virus. Put plainly: Neutralization of amphotropic pseudotyped murine leukemia virus. It is filed as cell-based.
Data set [5] deals with vesicular stomatitis virus. It is filed as cell-based.
Data set [6] relates to HIV-1 YU2 pseudotyped viral particles. The conditions noted are these: read-out: IC50 YU2 (R5); TZM-bl cells; cited from earlier work.
The test system of the next data set is HIV-1 BaL26 (R5). The note with it: read-out: IC50 BaL26 (R5); TZM-bl cells; cited from earlier work.
In the next data set the test system is HIV-1 HxB2 (X4). The note with it: read-out: IC50 HxB2 (X4); cited from earlier work.
For the next data set, the system named is HIV-1 NL4–3 (X4). The conditions noted are these: read-out: IC50 NL4–3 (X4); cited from earlier work.
Data set [7] deals with TZM-bl cells. The note with it: effects on host cell line TZM-bl; cited from earlier work.
The subject of data set [8] is YU2 pseudotyped HIV virus. The conditions noted are these: combination 2C:Nt, cited from earlier work.
The subject of data set [9] is HIV-1 YU2 pseudotyped viral particles. The note with it: neutralization assay.

“Also recorded” adds a separate entry of the source. Read-outs that look alike come from different tables or passages of the source.

As for Ac-CSSHFPFSQFQFWK-NH2 [16-5], in the data set on TZM-bl cells [1], the “TI (toxicity index; ratio of cytotoxicity to neutralization IC50 values)” value is over 50 µM and the “cellular cytotoxicity (in words)” value was “cytotoxic”.

Regarding Ac-CSSHFPFSQVQFWK-NH2 [16-6], in the data set on TZM-bl cells [1], the “TI (toxicity index; ratio of cytotoxicity to neutralization IC50 values)” value was over 5 µM and the “cellular cytotoxicity (in words)” value is “cytotoxic”.

As to Ac-CSSHFPFSQYQFWK-NH2 [16-2], in the data set on TZM-bl cells [1], the “TI (toxicity index; ratio of cytotoxicity to neutralization IC50 values)” value is over 63 to 250 µM and the “cytotoxic at concentrations above” value is on record as “above 65 μM”.

On to Ac-CSSHFPWSQVQFWK-NH2 [16-7], for which, in the data set on TZM-bl cells [1], the “TI (toxicity index; ratio of cytotoxicity to neutralization IC50 values)” value was over 75 µM and the “cellular cytotoxicity (in words)” value is “cytotoxic”.

Turning to Ac-CSSHFPYSQFQFWK-NH2 [16-4], in the data set on TZM-bl cells [1], the “TI (toxicity index; ratio of cytotoxicity to neutralization IC50 values)” value was over 100 µM and the “cellular cytotoxicity (in words)” value is “cytotoxic”.

As usually defined, the IC50 is the concentration at which inhibition is half-maximal. What is called LC50 is the concentration lethal to half of the exposed cells or organisms. As to “Ac-CSSHFPYSQYQFWK-NH2 [2C, reference compound]”, in [2], the “inhibition of virion capture by mAb 19b” value was “effectively blocked virus capture”. For the same substance, in data set [2], the “inhibition of virion capture by mAb 268-D” value was “effectively blocked virus capture”. The “inhibition of virion capture by mAb 48d” value in data set [2] is reported as “effectively blocked virus capture; also recorded: to a lesser extent”. The “inhibition of virion capture by mAb B4e8 (V3 tip)” value in data set [2] is “neither 2C nor 40-2 blocked capture; also recorded: neither inhibited virion capture”. For the same substance, the “inhibition of virion capture by mAb D19 (V3 tip)” value in data set [2] is recorded as “neither 2C nor 40-2 blocked capture; also recorded: neither inhibited virion capture”. In addition, the “glutathione (GST) adducts detected starting around” value in data set [3] was “around 30 min”. For the same substance, the “activity toward amphotropic pseudotyped murine leukemia virus (in words)” value in [4] was “inactive”. In addition, the “activity toward vesicular stomatitis virus (in words)” value in [5] is “inactive”. Also, the IC50 in data set [6] was 28 ± 7 µM; with HIV-1 BaL26 (R5), 65 ± 3 µM; in the data set with HIV-1 HxB2 (X4) it was 54 µM; in the data set with HIV-1 NL4–3 (X4), 53 ± 2 µM. Besides, the LC50 with TZM-bl cells [7] was 190 µM. Further, the “dose reduction index (DRI)” value in data set [8] (ratio 1:1) was 2.1 ± 0.4; in [8] (ratio 1:2), 2.6 ± 0.5; in data set [8] (ratio 1:5), 4.9 ± 1.0.

With Ac-CSSYFPFSQYQFWK-NH2 [18-2], in the data set on TZM-bl cells [1], the “TI (toxicity index; ratio of cytotoxicity to neutralization IC50 values)” value was over 63 to 125 µM and the “cytotoxic at concentrations above” value is recorded as “above 65 μM”.

Turning to Ac-CSSYFPFSQYQWWK-NH2 [20-2], the “glutathione (GST) adducts detected starting around” value in data set [3] is “around 30 min”. In addition, in the data set on TZM-bl cells [1], the “TI (toxicity index; ratio of cytotoxicity to neutralization IC50 values)” value was over 250 µM and the “cellular cytotoxicity (in words)” value was “nontoxic at relevant concentrations”.

For the substance Ac-CSSYFPWSQYQWWK-NH2 [30-2], in the data set on TZM-bl cells [1], the “TI (toxicity index; ratio of cytotoxicity to neutralization IC50 values)” value was over 500 µM and the “cellular cytotoxicity (in words)” value is “nontoxic at relevant concentrations”. Also, the median lethal concentration (LC50) result in the data set with TZM-bl cells [1] (effects on host cell line TZM-bl, standard deviations averaged 20%, Non-toxic = nontoxic at 500 μM) is “Non-toxic^f”.

In the case of Ac-CSSYYPFSQYQWWK-NH2 [20-5], in the data set on TZM-bl cells [1], the “cellular cytotoxicity (in words)” value was “nontoxic at relevant concentrations”.

Regarding Ac-SSHFPFSQRQFWK-NH2 [14-1], the “TI (toxicity index; ratio of cytotoxicity to neutralization IC50 values)” value in the data set on TZM-bl cells [1] is over 500 to 1000 µM.

Ac-SSHFPFSQVQFWK-NH2 [14-5]: the “activity against R5-tropic strain YU2 (in words)” value in data set [9] was “low activity”. Besides, the “TI (toxicity index; ratio of cytotoxicity to neutralization IC50 values)” value in the data set with TZM-bl cells [1] is over 500 µM.

As for Ac-SSHFPFSQYQFWK-NH2 [12-2], in data set [9], the “activity against R5-tropic strain YU2 (in words)” value is reported as “modest gains in potency”. The “TI (toxicity index; ratio of cytotoxicity to neutralization IC50 values)” value in the data set on TZM-bl cells [1] is over 500 µM.

As for Ac-SSHFPVSQYQFWK-NH2 [12-3], the “activity against R5-tropic strain YU2 (in words)” value in data set [9] is reported as “modest gains in potency”. Besides, in the data set with TZM-bl cells [1], the “TI (toxicity index; ratio of cytotoxicity to neutralization IC50 values)” value was over 5 µM and the “cellular cytotoxicity (in words)” value is on record as “cytotoxic”.

Ac-SSHFPWSQRQFWK-NH2 [14-2]: the “TI (toxicity index; ratio of cytotoxicity to neutralization IC50 values)” value in the data set with TZM-bl cells [1] is over 500 to 1000 µM.

Ac-SSHFPWSQVQFWK-NH2 [14-6]: in data set [9], the “activity against R5-tropic strain YU2 (in words)” value is “low activity”. Further, in the data set on TZM-bl cells [1], the “TI (toxicity index; ratio of cytotoxicity to neutralization IC50 values)” value is over 200 µM.

For the substance Ac-SSHFPWSQYQFWK-NH2 [12-4], in data set [9], the “activity against R5-tropic strain YU2 (in words)” value was “modest gains in potency”. Also, the “TI (toxicity index; ratio of cytotoxicity to neutralization IC50 values)” value in the data set on TZM-bl cells [1] was over 500 µM.

Take Ac-SSHFPYSQYQFWK-NH2 [12-1]: the “TI (toxicity index; ratio of cytotoxicity to neutralization IC50 values)” value in the data set on TZM-bl cells [1] was over 500 to 1000 µM.

Consider Ac-YSSYFPFSQYQWWK-NH2 [40-2], for which, in [2], the “inhibition of virion capture by mAb 19b” value was “effectively blocked virus capture”, the “inhibition of virion capture by mAb 268-D” value is recorded as “effectively blocked virus capture”, the “inhibition of virion capture by mAb 48d” value is listed as “effectively blocked virus capture; also recorded: to a lesser extent” and the “inhibition of virion capture by mAb B4e8 (V3 tip)” value is recorded as “neither 2C nor 40-2 blocked capture; also recorded: neither inhibited virion capture”. Moreover, the “inhibition of virion capture by mAb D19 (V3 tip)” value in [2] was “neither 2C nor 40-2 blocked capture; also recorded: neither inhibited virion capture”. Besides, the “glutathione (GST) adduct formation (in words)” value in data set [3] is reported as “never detected GST adducts”. Moreover, in the data set on TZM-bl cells [1], the “TI (toxicity index; ratio of cytotoxicity to neutralization IC50 values)” value was over 250 µM and the “cellular cytotoxicity (in words)” value is listed as “nontoxic at relevant concentrations”.
